Assay results as given in patent publication US8192962B2, “Processes for detecting toxic substances” (Daikin Industries, Ltd., priority 2001, dated 2012).

Tested on: Energy system protein genes
Experiment: DNA chip mRNA expression in yeast, energy system protein genes (Table 4)
Type: cell-based, Saccharomyces cerevisiae S288C
Outline: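 In this screen, yeast in logarithmic growth are challenged for two hours with a toxic substance at a non-lethal inhibitory concentration. Their mRNA, converted to Cy3- or Cy5-labeled cDNA, hybridizes at 65° C. to a chip spanning every yeast gene, and expression is expressed as a ratio to untreated cells.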

Compound: C=CC=O [(14), acrolein]
- The level of expressed mRNA in the presence of chemical substance/The level of expressed mRNA in the absence of chemical substance (yeast gene YAL060W): 0.9
- The level of expressed mRNA in the presence of chemical substance/The level of expressed mRNA in the absence of chemical substance (yeast gene YBL058W, cells incubated two hours with the chemical substance): 1.3
- The level of expressed mRNA in the presence of chemical substance/The level of expressed mRNA in the absence of chemical substance (yeast gene YBL099W, cells incubated two hours with the chemical substance): 0.6
- The level of expressed mRNA in the presence of chemical substance/The level of expressed mRNA in the absence of chemical substance (yeast gene YBR001C, cells incubated two hours with the chemical substance): 1.2
- The level of expressed mRNA in the presence of chemical substance/The level of expressed mRNA in the absence of chemical substance (yeast gene YBR185C, cells incubated two hours with the chemical substance): 1.7
- The level of expressed mRNA in the presence of chemical substance/The level of expressed mRNA in the absence of chemical substance (yeast gene YBR221C, cells incubated two hours with the chemical substance): 0.8
- The level of expressed mRNA in the presence of chemical substance/The level of expressed mRNA in the absence of chemical substance (yeast gene YBR299W): 1.4
- The level of expressed mRNA in the presence of chemical substance/The level of expressed mRNA in the absence of chemical substance (yeast gene YCL040W): 0.7
- The level of expressed mRNA in the presence of chemical substance/The level of expressed mRNA in the absence of chemical substance (yeast gene YCR012W): 0.9
- The level of expressed mRNA in the presence of chemical substance/The level of expressed mRNA in the absence of chemical substance (yeast gene YCR046C, cells incubated two hours with the chemical substance): 1.3
- The level of expressed mRNA in the presence of chemical substance/The level of expressed mRNA in the absence of chemical substance (yeast gene YCR105W, cells incubated two hours with the chemical substance): 1.9
- The level of expressed mRNA in the presence of chemical substance/The level of expressed mRNA in the absence of chemical substance (yeast gene YDL021W): 3.7
- The level of expressed mRNA in the presence of chemical substance/The level of expressed mRNA in the absence of chemical substance (yeast gene YDL067C, cells incubated two hours with the chemical substance): 1.4
- The level of expressed mRNA in the presence of chemical substance/The level of expressed mRNA in the absence of chemical substance (yeast gene YDL078C, cells incubated two hours with the chemical substance): 0.8
- The level of expressed mRNA in the presence of chemical substance/The level of expressed mRNA in the absence of chemical substance (yeast gene YDL107W, cells incubated two hours with the chemical substance): 1.5
- The level of expressed mRNA in the presence of chemical substance/The level of expressed mRNA in the absence of chemical substance (yeast gene YDL174C): 1.1
- The level of expressed mRNA in the presence of chemical substance/The level of expressed mRNA in the absence of chemical substance (yeast gene YDL181W, cells incubated two hours with the chemical substance): 1.1
- The level of expressed mRNA in the presence of chemical substance/The level of expressed mRNA in the absence of chemical substance (yeast gene YDR001C): 1.0
- The level of expressed mRNA in the presence of chemical substance/The level of expressed mRNA in the absence of chemical substance (yeast gene YDR050C, cells incubated two hours with the chemical substance): 1.2
- The level of expressed mRNA in the presence of chemical substance/The level of expressed mRNA in the absence of chemical substance (yeast gene YDR079W, cells incubated two hours with the chemical substance): 1.5
- The level of expressed mRNA in the presence of chemical substance/The level of expressed mRNA in the absence of chemical substance (yeast gene YDR178W, cells incubated two hours with the chemical substance): 1.5
- The level of expressed mRNA in the presence of chemical substance/The level of expressed mRNA in the absence of chemical substance (yeast gene YDR231C): 1.5
- The level of expressed mRNA in the presence of chemical substance/The level of expressed mRNA in the absence of chemical substance (yeast gene YDR298C, cells incubated two hours with the chemical substance): 1.5
- The level of expressed mRNA in the presence of chemical substance/The level of expressed mRNA in the absence of chemical substance (yeast gene YDR377W, cells incubated two hours with the chemical substance): 1.4
- The level of expressed mRNA in the presence of chemical substance/The level of expressed mRNA in the absence of chemical substance (yeast gene YDR529C, cells incubated two hours with the chemical substance): 1.5
- The level of expressed mRNA in the presence of chemical substance/The level of expressed mRNA in the absence of chemical substance (yeast gene YEL024W, cells incubated two hours with the chemical substance): 1.1
- The level of expressed mRNA in the presence of chemical substance/The level of expressed mRNA in the absence of chemical substance (yeast gene YEL039C, cells incubated two hours with the chemical substance): 1.4
- The level of expressed mRNA in the presence of chemical substance/The level of expressed mRNA in the absence of chemical substance (yeast gene YER178W): 0.9
- The level of expressed mRNA in the presence of chemical substance/The level of expressed mRNA in the absence of chemical substance (yeast gene YFL057C): 23.4
- The level of expressed mRNA in the presence of chemical substance/The level of expressed mRNA in the absence of chemical substance (yeast gene YFR053C): 0.6
- The level of expressed mRNA in the presence of chemical substance/The level of expressed mRNA in the absence of chemical substance (yeast gene YGL018C, cells incubated two hours with the chemical substance): 1.2
- The level of expressed mRNA in the presence of chemical substance/The level of expressed mRNA in the absence of chemical substance (yeast gene YGL062W): 1.2
- The level of expressed mRNA in the presence of chemical substance/The level of expressed mRNA in the absence of chemical substance (yeast gene YGL187C, cells incubated two hours with the chemical substance): 0.9
- The level of expressed mRNA in the presence of chemical substance/The level of expressed mRNA in the absence of chemical substance (yeast gene YGL191W, cells incubated two hours with the chemical substance): 1.6
- The level of expressed mRNA in the presence of chemical substance/The level of expressed mRNA in the absence of chemical substance (yeast gene YGL205W, cells incubated two hours with the chemical substance): 1.0
- The level of expressed mRNA in the presence of chemical substance/The level of expressed mRNA in the absence of chemical substance (yeast gene YGL256W, cells incubated two hours with the chemical substance): 0.9
- The level of expressed mRNA in the presence of chemical substance/The level of expressed mRNA in the absence of chemical substance (yeast gene YGR043C): 4.1
- The level of expressed mRNA in the presence of chemical substance/The level of expressed mRNA in the absence of chemical substance (yeast gene YGR062C, cells incubated two hours with the chemical substance, 25° C., YPD medium): 1.2
- The level of expressed mRNA in the presence of chemical substance/The level of expressed mRNA in the absence of chemical substance (yeast gene YGR087C, cells incubated two hours with the chemical substance): 0.7
- The level of expressed mRNA in the presence of chemical substance/The level of expressed mRNA in the absence of chemical substance (yeast gene YGR174C, cells incubated two hours with the chemical substance): 1.6
- The level of expressed mRNA in the presence of chemical substance/The level of expressed mRNA in the absence of chemical substance (yeast gene YGR192C): 1.0
- The level of expressed mRNA in the presence of chemical substance/The level of expressed mRNA in the absence of chemical substance (yeast gene YGR244C): 1.2
- The level of expressed mRNA in the presence of chemical substance/The level of expressed mRNA in the absence of chemical substance (yeast gene YGR254W): 0.6
- The level of expressed mRNA in the presence of chemical substance/The level of expressed mRNA in the absence of chemical substance (yeast gene YHR179W): 5.8
- The level of expressed mRNA in the presence of chemical substance/The level of expressed mRNA in the absence of chemical substance (yeast gene YIL160C): 1.5
- The level of expressed mRNA in the presence of chemical substance/The level of expressed mRNA in the absence of chemical substance (yeast gene YIR031C, cells incubated two hours with the chemical substance): 1.2
- The level of expressed mRNA in the presence of chemical substance/The level of expressed mRNA in the absence of chemical substance (yeast gene YJL052W): 1.3
- The level of expressed mRNA in the presence of chemical substance/The level of expressed mRNA in the absence of chemical substance (yeast gene YJL121C, cells incubated two hours with the chemical substance): 0.9
- The level of expressed mRNA in the presence of chemical substance/The level of expressed mRNA in the absence of chemical substance (yeast gene YJL166W, cells incubated two hours with the chemical substance): 1.9
- The level of expressed mRNA in the presence of chemical substance/The level of expressed mRNA in the absence of chemical substance (yeast gene YJL216C, cells incubated two hours with the chemical substance): 1.1
- The level of expressed mRNA in the presence of chemical substance/The level of expressed mRNA in the absence of chemical substance (yeast gene YJR009C): 1.0
